According to the NIST ThermoML archive (doi:10.1021/je4001944):
Numbers after ± are expanded uncertainties.

Conditions: 101 kPa, Liquid

SMILES	mass density (298.15 K) [kg/m3]	mass density (308.15 K) [kg/m3]	mass density (323.15 K) [kg/m3]
CCCCCC[n+]1ccn(C)c1.O=S(=O)([N-]S(=O)(=O)C(F)(F)F)C(F)(F)F	1391 ± 11	1373 ± 11	1340 ± 10
CCCCCCCCCCn1cc[n+](C)c1.O=S(=O)([N-]S(=O)(=O)C(F)(F)F)C(F)(F)F	1284 ± 10	1256 ± 10	1221 ± 10
CCCCCCCCn1cc[n+](C)c1.O=S(=O)([N-]S(=O)(=O)C(F)(F)F)C(F)(F)F	1343 ± 11	1323 ± 10	1287 ± 10
